Measured values from patent publication US9675543B2, “Method of improving aging appearance of skin by modulation of WIPI-1” (Avon Products, Inc., priority 2012, dated 2017).

Tested on: WIPI-1
Test: WIPI-1 Screening, mRNA up-regulation in normal human keratinocytes (HEKa), Quantigene multiplex assay
Type: cell-based
Settings: for HEKa Activity Level (percent up-regulation of WIPI-1 mRNA, scaled score): HEKa keratinocytes, 24 hours, vs vehicle control
Method: A variety of botanical extract and synthetic compounds were tested for the ability to up-regulate WIPI-1. Normal human dermal fibroblasts or keratinocytes were cultured in 96-well tissue culture treated plates, containing appropriate culture medium. Stock solutions of actives were made in an appropriate vehicle (water/Ethanol/DMSO). Cells were treated with test material or respective vehicle control diluted in growth medium for 24 hours in a humidified 37° C. incubator with 10% CO2. The concentrations of each extract are provided based on the dry weight of the given plant extract, by which is meant the weight of the extract after volatile extraction solvents have been removed. After incubation, growth medium from each plate was removed and 100 μL of lysis buffer was added to the wells and placed in 37° C. incubator with 10% CO2 for 30 minutes. At the end of incubation, the cells were collected in freezer plates and placed in −80° C. freezer, until analysis. Changes in mRNA after treatment were analysed using Panomics Quantigene multiplex assay that employs a branched DNA technology, following manufacturer's instructions (Affymetrix, CA). Percent increase (up-regulation) in mRNA for the WIPI-1 were calculated by comparing the test results to the control. The percent up-regulation is converted to a scaled score: 0: 0-20%; +: 21-40%; ++: 41-60%; +++: 61-80%; ++++: >80%.

Q: How did the “HEKa Activity Level (percent up-regulation of WIPI-1 mRNA, scaled score)” value (concentration 0.001%) turn out when `CCOCCCNC(=O)c1coc(CN(CCCOCC)C(=O)c2ccc(Cl)cc2)n1` [Analog 1] was run?
A: Its value is “+ (+: 21-40%)”.

Q: What about the “HEKa Activity Level (percent up-regulation of WIPI-1 mRNA, scaled score)” value (concentration 0.01%) of the same compound?
A: Its value is “+ (+: 21-40%)”.

Q: And the “WIPI-1 within keratinocytes upregulated (in words)” value (keratinocytes)?
A: Its value is “upregulated”.
